Experimental data taken from US8883502B2, “Expandable cell source of neuronal stem cell populations and methods for obtaining and using them” (The Regents of the University of California, priority 2010, dated 2014).

Columns and labels:
[1] = molecular target: SAPK2/p38 (Homo sapiens, UniProt Q16539); settings: inhibitor of CK1 and ALK5; cited from earlier work
[2] = system: GSK3; settings: GSK3 inhibitor; cited from earlier work
[3] = molecular target: GSK3β (Homo sapiens, UniProt P49841); settings: cited from earlier work
[4] = system: pNSCs; assay: pNSC self-renewal, clonogenicity and culture on Matrigel; type: cell-based, human
Procedure: (§1) hESCs (HUES9 and HUES1) at about 20% confluence were treated with 3 μM CHIR99021 (Cellagentech), 2 μM SB431542 (Cellagentech), 0.1 μM Compound E (γ-Secretase Inhibitor XXI, EMD Chemicals Inc.) in neural induction media containing Advanced DMEM/F12:Neurobasal (1:1), 1×N2, 1×B27, 1% Glutmax, 5 μg/mL BSA and 10 ng/mL hLIF (Millipore), for 7 d. The culture was then split 1:3 for the next six passages using Accutase and cultured in neural induction media supplemented with 3 μM CHIR99021 and 2 μM SB431542 on X-ray inactivated MEF feeders or Matrigel-coated plates. After six passages, the cells were split 1:10 regularly. Neural induction of H1 hESCs follows the same protocol, but using 4 μM CHIR99021, 3 μM SB431542, and 0.1 μM compound E in the first 7 d, after which the cells were regularly cultured with neural induction media supplemented with 3 μM CHIR99021 and 2 μM SB431542. During the initial few passages, overnight treatment with the ROCK inhibitor (Y-27632, 5 μM, Cellagentech) was also used to enhance cell survival, but not required in following passages. In the present study, neural induction data were collected under feeder conditions except the FACS analysis of FIG. 6 performed under feeder-free condition. pNSCs were expanded on Matrigel-coated surfaces.
pNSCs can long-term self-renew over serial passages on Matrigel with SBR431542, CHIR, and hLIF. pNSCs generated from HUES9 and H1 hESCs were routinely passaged 1:10 and have been cultured for >30 passages without obviously losing proliferative capacity, which is equivalent to at least 94 population doublings. However, individual omission of hLIF, SB431542, or CHIR from the media compromised pNSCs' long-term self-renewal. Single pNSC is clonogenic on Matrigel in the presence of hLIF/SB431542/CHIR (FIG. 2A). […] Despite their highly proliferative and clonogenic capacity, pNSCs are not tumorigenic in SCID beige mice.

[5] = molecular target: gamma secretase; settings: read-out: IC50, gamma secretase inhibitor; cited from earlier work
[6] = system: Notch signaling; settings: Notch signaling inhibitor and gamma secretase inhibitor; cited from earlier work
[7] = system: hESCs; assay: Neural induction of hESCs (real-time PCR, immunocytochemistry, flow cytometry); type: cell-based, human
Procedure: as §1, with “[…]),” for “CHIR99021 (Cellagentech),”, “([…]),” for “(Cellagentech),”, “Neural induction of H1 hESCs follows the same protocol, but using 4 μM CHIR99021, 3 μM SB431542, and 0.1 μM compound E in the first 7 d, after which the cells were regularly cultured with neural induction media supplemented with 3 μM CHIR99021 and 2 μM SB431542.” left out, “([…])” for “(Y-27632, 5 μM, Cellagentech)”, “surfaces. For immunofluorescence assays, pNSCs were fixed in 4% paraformaldehyde for 10 min. Specifically, 4% paraformaldehyde with 0.15% picric acid was used to fix the neuronal differentiation culture. For immunostaining of GABA antigen, the cells were fixed in 4% paraformaldehyde, 0.15% picric acid and 0.02% Glutaraldehyde. […]” for “surfaces.”

Sequence of SAPK2/p38 (Q16539 whole entry): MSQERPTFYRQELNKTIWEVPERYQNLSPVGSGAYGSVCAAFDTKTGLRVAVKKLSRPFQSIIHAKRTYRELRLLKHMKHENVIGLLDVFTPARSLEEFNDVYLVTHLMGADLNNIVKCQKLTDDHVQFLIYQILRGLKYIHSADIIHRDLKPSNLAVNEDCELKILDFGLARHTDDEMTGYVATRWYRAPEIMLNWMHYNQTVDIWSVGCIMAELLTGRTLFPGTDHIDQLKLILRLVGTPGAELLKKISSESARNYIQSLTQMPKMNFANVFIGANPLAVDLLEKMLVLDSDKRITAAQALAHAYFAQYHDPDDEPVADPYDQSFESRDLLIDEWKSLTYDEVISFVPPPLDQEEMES
Sequence of GSK3β (P49841 whole entry, species assumed): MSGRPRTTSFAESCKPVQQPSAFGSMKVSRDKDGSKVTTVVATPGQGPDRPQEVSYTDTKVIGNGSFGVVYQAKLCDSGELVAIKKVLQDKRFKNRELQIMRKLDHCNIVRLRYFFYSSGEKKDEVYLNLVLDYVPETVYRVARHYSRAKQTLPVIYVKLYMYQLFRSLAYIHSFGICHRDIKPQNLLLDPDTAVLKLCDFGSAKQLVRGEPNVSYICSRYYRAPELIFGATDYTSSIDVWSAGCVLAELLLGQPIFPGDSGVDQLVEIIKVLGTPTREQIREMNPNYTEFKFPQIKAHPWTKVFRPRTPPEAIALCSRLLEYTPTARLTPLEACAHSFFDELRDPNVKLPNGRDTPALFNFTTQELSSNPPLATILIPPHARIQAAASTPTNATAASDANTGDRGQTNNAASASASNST

NC(=O)c1ccc(-c2nc(-c3ccc4c(c3)OCCO4)c(-c3ccccn3)[nH]2)cc1 [D 4476, 4-[4-(2,3-Dihydro-1,4-benzodioxin-6-yl)-5-(2-pyridinyl)-1H-imidazol-2-yl]benzamide]
selectivity over SAPK2/p38 [1]: > 20 fold

O=C1NC(=O)C(c2cccc3c2OCO3)N1 (stereo not drawn) [(Z)-5-(2,3-Methylenedioxyphenyl)imidazolidine-2,4-dione]
IC50 [3]: 27 nM

bFGF: basic fibroblast growth factor, 20 ng/mL in neural induction media
morphology of pNSCs ([4]; neural induction media with 20 ng/mL bFGF, 4 d): gained rosette-like structures

C[C@H](NC(=O)Cc1cc(F)cc(F)c1)C(=O)N[C@H]1N=C(c2ccccc2)c2ccccc2N(C)C1=O [Compound E, (S,S)-2-[2-(3,5-Difluorophenyl)-acetylamino]-N-(1-methyl-2-oxo-5-phenyl-2,3-dihydro-1H-benzo[e][1,4]diazepin-3-yl)-propionamide]
IC50 [5]: ~0.3 nM
effect on established pNSCs ([4]; 48 h treatment): rapidly induced pNSCs to differentiate into Double cortin (DCX)-positive neuronal precursors
colony formation from single pNSC ([4]; on Matrigel): no colonies were observed

CCC[C@H](N[C@H]1CCc2cc(F)cc(F)c2C1)C(=O)Nc1cn(C(C)(C)CNCC(C)(C)C)cn1 [PF-03084014, (S)-2-(((S)-6,8-difluoro-1,2,3,4-tetrahydronaphthalen-2-yl)amino)-N-(1-(2-methyl-1-(neopentylamino)propan-2-yl)-1H-imidazol-4-yl)pentanamide]
IC50 [6]: 13.3 nM

B1: Wnt3a: Wnt3a used to replace CHIR in the neural induction protocol (protein, UniProt P56704 19-352, looked up)
Protein Wnt-3a: SYPIWWSLAVGPQYSSLGSQPILCASIPGLVPKQLRFCRNYVEIMPSVAEGIKIGIQECQHQFRGRRWNCTTVHDSLAIFGPVLDKATRESAFVHAIASAGVAFAVTRSCAEGTAAICGCSSRHQGSPGKGWKWGGCSEDIEFGGMVSREFADARENRPDARSAMNRHNNEAGRQAIASHMHLKCKCHGLSGSCEVKTCWWSQPDFRAIGDFLKDKYDSASEMVVEKHRESRGWVETLRPRYTYFKVPTERDLVYYEASPNFCEPNPETGSFGTRDRTCNVSSHGIDGCDLLCCGRGHNARAERRREKCRCVFHWCCYVSCQECTRVYDVHTCK
effect of replacing CHIR in the neural induction protocol [7]: induced significant spontaneous differentiation and did not generate a homogenous NSC population
